In patent publication US7173019B2, “Linked cyclitols and their polysulfated derivatives” (The Australian National University, priority 2001, dated 2007):
Like-named read-outs stand apart in the source and are kept apart here.

Assays:
bFGF = bFGF (Homo sapiens, UniProt P09038); test: Biacore biosensor: inhibition of bFGF binding to immobilised heparin and heparan sulfate
Method: (§1) Assays were performed using a Biacore™ 2000 optical biosensor obtained from Biacore AB, Uppsala, Sweden. The biosensor was operated in accordance with the manufacturer's instructions. Briefly, neutravidin was covalently coupled to the surface of CM5 chips of the biosensor and then either biotinylated heparin (1 μg/ml) or biotinylated heparan sulfate ([…]) bound to the immobilised neutravidin. Mixtures of a test compound and a growth factor or other effector compound were preincubated for 2 to 5 minutes and the mixtures then added to individual biosensor cuvettes. Binding of growth factor or effector compound to the heparin or heparan sulfate was then monitored for approximately 5 minutes with the biosensor.
(§2) The tabulated values are the IC50 in μM or % inhibition of binding of the growth factor to the immobilised heparan sulfate (HS) or heparin.

[1] = target: T1, human platelet heparanase (Homo sapiens, UniProt Q9Y251); test: Heparanase inhibition, 3H-radiolabelled HS cleavage assay; format: biochemical; settings: for EC50: heparanase inhibition; for inhibition: read-out: Relative inhibition (%); for inhibition at 10 µg/mL: read-out: Inhibition (%) at 10 μg/ml
T1 construct: 10 ng of purified human platelet heparanase; from tissue; host or cells: human platelets
T1 sequence (Q9Y251 158-543 limits assumed): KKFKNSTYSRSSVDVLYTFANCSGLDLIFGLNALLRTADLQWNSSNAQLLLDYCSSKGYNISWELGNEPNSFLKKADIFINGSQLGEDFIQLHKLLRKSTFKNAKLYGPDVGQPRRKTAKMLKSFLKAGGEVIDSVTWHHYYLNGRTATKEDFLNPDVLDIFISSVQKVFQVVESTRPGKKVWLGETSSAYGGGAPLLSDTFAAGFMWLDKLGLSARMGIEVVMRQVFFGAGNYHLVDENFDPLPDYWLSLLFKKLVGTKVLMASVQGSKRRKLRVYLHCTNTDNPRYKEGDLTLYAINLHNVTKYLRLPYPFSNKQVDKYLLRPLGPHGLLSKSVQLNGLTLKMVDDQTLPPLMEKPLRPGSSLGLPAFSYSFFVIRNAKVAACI
T1 sequence (Q9Y251 36-109 limits assumed): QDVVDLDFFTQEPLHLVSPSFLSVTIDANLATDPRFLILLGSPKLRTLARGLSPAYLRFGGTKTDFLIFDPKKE
Method: Briefly, to an incubation mixture of […] containing ^3H-radiolabelled porcine mucosal HS […], 50 mM-sodium acetate buffer, pH 5.0, […] bovine serum albumin and the inhibitor to be tested, was added 10 ng of purified human platelet heparanase and the mixture incubated for 30 min. The reaction was terminated by freezing the assay tubes. The substrate was separated from the cleavage products on minicolumns of sepharose-bound histidine-rich glycoprotein (Freeman, C., and Parish, C. R. [1997], supra).
Inhibitory activity is based on a comparison with heparin with 100% inhibition at 30 μg/ml. The compounds were also tested at the same purity as in Example 15.

[2] = target: T2, human leukocyte Cathepsin G (Homo sapiens, UniProt P08311); test: Cathepsin G inhibition, fluorogenic substrate, 96 well assay; format: biochemical; settings: human leukocyte cathepsin G 100 ng, 37° C., 60 min, pH 6.6; for IC50: read-out: Amount for 50% inhibition (converted)
T2 construct: human leukocyte Cathepsin G (100 ng protein); from tissue; host or cells: human leukocytes
T2 sequence (P08311 21-244): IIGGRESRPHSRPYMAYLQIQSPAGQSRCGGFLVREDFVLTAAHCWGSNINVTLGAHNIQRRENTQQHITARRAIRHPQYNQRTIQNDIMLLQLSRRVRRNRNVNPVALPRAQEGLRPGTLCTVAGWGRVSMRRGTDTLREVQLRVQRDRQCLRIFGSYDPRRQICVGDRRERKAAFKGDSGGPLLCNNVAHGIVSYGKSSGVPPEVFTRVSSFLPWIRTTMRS
Method: Cathepsin G activity was determined using a 96 well assay format in PVC microtitre U-bottom plates with activity determination by a fluorescence plate reader. Briefly, within a total incubation volume of 40 μl, human leukocyte Cathepsin G (100 ng protein) was added to a mixture of inhibitor and the fluorogenic substrate MeOSuc-ala-ala-pro-phe-AMAC in 50 mM-NaOAc buffer, pH 6.6 containing 50 mM NaCl and 0.1% (v/v) Brij 35. The mixture was incubated at 37° C. for 60 min, the reaction stopped by the addition of 40 μl of 250 mM acetic acid and the fluorescence determined with excitation at 360 nm and emitted light measured at 460 nm.
In this table, the linked cyclitol compound identifications are the same as those given in Section A above where the structures of the compounds are also given. With regard to the purity rating, a greater number of asterisks signifies a greater degree of purity with five asterisks signifying an essentially pure compound. The cathepsin G inhibition data are the concentrations of compounds required to inhibit the enzyme by 50%.

aFGF = aFGF (Homo sapiens, UniProt P05230); test: Biacore biosensor: inhibition of aFGF binding to immobilised heparin and heparan sulfate; settings: inhibitor 0.034 μM, aFGF 0.025 μM
Method: as §1, §2

VEGF = target: T3, VEGF (Homo sapiens, UniProt P15692); test: Biacore biosensor: inhibition of VEGF binding to immobilised heparin and heparan sulfate; settings: inhibitor 0.034 μM, VEGF 0.025 μM
T3 sequence (P15692 27-191 isoform P15692-4): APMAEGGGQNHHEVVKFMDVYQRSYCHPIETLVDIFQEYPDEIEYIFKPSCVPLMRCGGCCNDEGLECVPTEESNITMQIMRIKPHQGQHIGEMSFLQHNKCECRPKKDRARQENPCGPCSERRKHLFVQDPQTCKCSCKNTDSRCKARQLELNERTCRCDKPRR
Method: as §1, §2

IL-8 = target: T4, IL-8 (Homo sapiens, UniProt P10145); test: Biacore biosensor: inhibition of IL-8 binding to immobilised heparin and heparan sulfate; settings: inhibitor 1.0 μM, IL-8 0.068 μM
T4 sequence (P10145 21-99): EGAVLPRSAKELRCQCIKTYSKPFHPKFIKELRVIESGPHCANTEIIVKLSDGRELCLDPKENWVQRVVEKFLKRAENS
Method: as §1

[3] = immobilised heparan sulfate, read-out: IC50, inhibition of bFGF binding (HS)
[4] = immobilised heparin, read-out: IC50, inhibition of bFGF binding (Hep)
[5] = based on a comparison with heparin with 100% inhibition at 30 μg/ml
[6] = immobilised heparan sulfate, inhibitor 0.034 μM, bFGF 0.034 μM, read-out: Inhibition of binding of bFGF (HS)
[7] = immobilised heparin, inhibitor 0.034 μM, bFGF 0.034 μM, read-out: Inhibition of binding of bFGF (Hep)
[8] = immobilised heparan sulfate, read-out: Inhibition of binding of aFGF (HS)
[9] = immobilised heparin, read-out: Inhibition of binding of aFGF (Hep)
[10] = immobilised heparan sulfate, read-out: Inhibition of binding of VEGF (HS)
[11] = immobilised heparin, read-out: Inhibition of binding of VEGF (Hep)
[12] = immobilised heparan sulfate, read-out: Inhibition of binding of IL-8 (HS)
[13] = immobilised heparin, read-out: Inhibition of binding of IL-8 (Hep)

Chain of aFGF (P05230 whole entry, species assumed): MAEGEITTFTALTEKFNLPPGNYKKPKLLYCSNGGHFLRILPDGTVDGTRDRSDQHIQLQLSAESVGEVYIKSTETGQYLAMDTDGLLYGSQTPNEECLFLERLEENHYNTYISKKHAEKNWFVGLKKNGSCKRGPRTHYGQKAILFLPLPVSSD
Chain of bFGF (P09038 134-288 limits assumed, species assumed): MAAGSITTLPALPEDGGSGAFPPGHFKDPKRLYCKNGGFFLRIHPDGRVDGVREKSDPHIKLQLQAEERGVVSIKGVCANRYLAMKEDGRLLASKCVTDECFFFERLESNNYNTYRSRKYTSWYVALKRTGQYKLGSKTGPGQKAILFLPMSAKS

| Compound | IC50 (bFGF; [3]) [nM] | IC50 (bFGF; [4]) [nM] | inhibition at 0.034 µM (bFGF; [6]) [%] | inhibition at 0.034 µM (bFGF; [7]) [%] | inhibition [1, 5] [%] | EC50 ([1]; read-out: EC50 (converted)) [nM] | IC50 [2] [nM] | inhibition at 0.034 µM (aFGF; [8]) [%] | inhibition at 0.034 µM (aFGF; [9]) [%] | inhibition at 0.034 µM (VEGF; [10]) [%] | inhibition at 0.034 µM (VEGF; [11]) [%] | inhibition at 1 µM (IL-8; [12]) [%] | inhibition at 1 µM (IL-8; [13]) [%] | further results |
| --- | --- | --- | --- | --- | --- | --- | --- | --- | --- | --- | --- | --- | --- | --- |
| O=S(=O)(O)OC[C@H]1O[C@@](COS(=O)(=O)O)(O[C@H]2O[C@H](COS(=O)(=O)O)[C@@H](OS(=O)(=O)O)[C@H](OS(=O)(=O)O)[C@H]2OS(=O)(=O)O)[C@@H](OS(=O)(=O)O)[C@@H]1OS(=O)(=O)O [Sucrose octasulfate, reference compound] | 925 | > 1000 |  |  |  |  |  |  |  |  |  |  |  | Inhibition of binding of bFGF (HS) (bFGF; immobilised heparan sulfate, inhibitor 0.034 μM, bFGF 0.034 μM): 2.5% (HS); Inhibition of binding of bFGF (Hep) (bFGF; immobilised heparin, inhibitor 0.034 μM, bFGF 0.034 μM): 0% (Hep); Relative inhibition (%) [1, 5]: 0%; EC50 [1]: >30 µg/mL; Amount for 50% inhibition [2]: 4.30 µg/mL; Inhibition of binding of aFGF (HS) (aFGF; immobilised heparan sulfate): 0% (HS); Inhibition of binding of aFGF (Hep) (aFGF; immobilised heparin): 0% (Hep); Inhibition of binding of VEGF (HS) (VEGF; immobilised heparan sulfate): 0% (HS); Inhibition of binding of VEGF (Hep) (VEGF; immobilised heparin): 0% (Hep) |
| O=S(=O)(O)O[C@H]1[C@H](OS(=O)(=O)O)[C@@H](N(CCCCCCCCCCN([C@H]2C=C[C@@H](OS(=O)(=O)O)[C@@H](OS(=O)(=O)O)[C@@H]2OS(=O)(=O)O)[C@H]2C=C[C@@H](OS(=O)(=O)O)[C@@H](OS(=O)(=O)O)[C@@H]2OS(=O)(=O)O)[C@H]2C=C[C@@H](OS(=O)(=O)O)[C@@H](OS(=O)(=O)O)[C@@H]2OS(=O)(=O)O)C=C[C@H]1OS(=O)(=O)O [Compound 4c] |  |  | 43 | 34 | 45 | 25500 | 158 | 21 | 26 | 53 | 62 | 77 | 76 |  |
| O=S(=O)(O)OC(CN([C@H]1C=C[C@@H](OS(=O)(=O)O)[C@@H](OS(=O)(=O)O)[C@@H]1OS(=O)(=O)O)[C@H]1C=C[C@@H](OS(=O)(=O)O)[C@@H](OS(=O)(=O)O)[C@@H]1OS(=O)(=O)O)CN([C@H]1C=C[C@@H](OS(=O)(=O)O)[C@@H](OS(=O)(=O)O)[C@@H]1OS(=O)(=O)O)[C@H]1C=C[C@@H](OS(=O)(=O)O)[C@@H](OS(=O)(=O)O)[C@@H]1OS(=O)(=O)O [Compound 4l] |  |  | 43 | 34 | 48 | 17000 | 292 | 47 | 54 | 0 | 0 | 46 | 52 |  |
| O=S(=O)(O)O[C@H]1[C@H](OS(=O)(=O)O)[C@@H](N(CCCCCN([C@H]2C=C[C@@H](OS(=O)(=O)O)[C@@H](OS(=O)(=O)O)[C@@H]2OS(=O)(=O)O)[C@H]2C=C[C@@H](OS(=O)(=O)O)[C@@H](OS(=O)(=O)O)[C@@H]2OS(=O)(=O)O)[C@H]2C=C[C@@H](OS(=O)(=O)O)[C@@H](OS(=O)(=O)O)[C@@H]2OS(=O)(=O)O)C=C[C@H]1OS(=O)(=O)O [Compound 4k] |  |  | 45 | 36 | 50 |  | 133 | 39 | 43 | 30 | 41 | 54 | 67 | inhibition at 10 µg/mL [1]: 39% |
| O=S(=O)(O)O[C@H]1[C@H](OS(=O)(=O)O)[C@@H](N(CCCCCCCCN([C@H]2C=C[C@@H](OS(=O)(=O)O)[C@@H](OS(=O)(=O)O)[C@@H]2OS(=O)(=O)O)[C@H]2C=C[C@@H](OS(=O)(=O)O)[C@@H](OS(=O)(=O)O)[C@@H]2OS(=O)(=O)O)[C@H]2C=C[C@@H](OS(=O)(=O)O)[C@@H](OS(=O)(=O)O)[C@@H]2OS(=O)(=O)O)C=C[C@H]1OS(=O)(=O)O [Compound 4i] |  |  | 51 | 45 | 53 | 16100 | 136 | 28 | 30 | 71 | 70 | 89 | 95 | inhibition at 10 µg/mL [1]: 39% |
| O=S(=O)(O)OC1C(OS(=O)(=O)O)C(OS(=O)(=O)O)C(N(CCCCCCN(C2C(OS(=O)(=O)O)C(OS(=O)(=O)O)C(OS(=O)(=O)O)C(OS(=O)(=O)O)C2OS(=O)(=O)O)C2C(OS(=O)(=O)O)C(OS(=O)(=O)O)C(OS(=O)(=O)O)C(OS(=O)(=O)O)C2OS(=O)(=O)O)C2C(OS(=O)(=O)O)C(OS(=O)(=O)O)C(OS(=O)(=O)O)C(OS(=O)(=O)O)C2OS(=O)(=O)O)C(OS(=O)(=O)O)C1OS(=O)(=O)O (centres unmarked) [Compound 5b] | 96 | > 250 |  |  |  | 5920 | 304 |  |  |  |  |  |  |  |
| O=S(=O)(O)OC1C(OS(=O)(=O)O)C(OS(=O)(=O)O)C(N(CCCCCCCCCCN(C2C(OS(=O)(=O)O)C(OS(=O)(=O)O)C(OS(=O)(=O)O)C(OS(=O)(=O)O)C2OS(=O)(=O)O)C2C(OS(=O)(=O)O)C(OS(=O)(=O)O)C(OS(=O)(=O)O)C(OS(=O)(=O)O)C2OS(=O)(=O)O)C2C(OS(=O)(=O)O)C(OS(=O)(=O)O)C(OS(=O)(=O)O)C(OS(=O)(=O)O)C2OS(=O)(=O)O)C(OS(=O)(=O)O)C1OS(=O)(=O)O (centres unmarked) [Compound 5c] | > 250 | > 250 |  |  |  | 20600 | 198 |  |  |  |  |  |  | heparanase inhibition, in words [1]: poor heparanase inhibitor |
